{"source": "ChEMBL document CHEMBL4152251", "about": "“Lactam hybrid analogues of solonamide B and autoinducing peptides as potent S. aureus AgrC antagonists” (Eur J Med Chem, 2018)", "key": {"[1]": {"molecular_target": "T1, Receptor-histidine kinase AgrC (Staphylococcus aureus) (UniProt O07911)", "T1 sequence (whole entry)": "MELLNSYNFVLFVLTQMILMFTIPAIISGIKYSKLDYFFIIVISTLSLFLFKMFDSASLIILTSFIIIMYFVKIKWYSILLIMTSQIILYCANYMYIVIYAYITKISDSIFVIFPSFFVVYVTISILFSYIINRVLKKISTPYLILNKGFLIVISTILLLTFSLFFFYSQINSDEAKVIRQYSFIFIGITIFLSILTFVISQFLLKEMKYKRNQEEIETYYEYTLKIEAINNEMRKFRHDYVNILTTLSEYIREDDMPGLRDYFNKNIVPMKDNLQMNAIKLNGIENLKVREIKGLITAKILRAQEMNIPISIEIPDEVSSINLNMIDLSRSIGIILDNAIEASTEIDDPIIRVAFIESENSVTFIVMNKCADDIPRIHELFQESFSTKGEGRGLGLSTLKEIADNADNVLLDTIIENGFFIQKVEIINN", "assay": "Inhibition of AIP-stimulated quorum sensing system AgrC activation in Staphylococcus aureus RN10829 harboring P3:blaZ fusion assessed as reduction in beta-lactamse activity at 5 ug/ml preincubated with organism followed by AIP addition measured after 45 mins by nitrocefin hydrolysis assay"}, "[2]": {"molecular_target": "T2, Receptor-histidine kinase AgrC (Staphylococcus aureus, UniProt O07911)", "T2 sequence (O07911 whole entry)": "T1 sequence (whole entry)", "assay": "Inhibition of AIP-stimulated quorum sensing system AgrC activation in Staphylococcus aureus RN10829 harboring P3:blaZ fusion assessed as reduction in beta-lactamse activity preincubated with organism followed by AIP addition measured after 45 mins by nitrocefin hydrolysis assay"}}, "note": "Activity calls are given as the source filed them. The rule behind the calls is not given here. Bridge positions count the residues as written; N and C are the ends. Square brackets hold non-standard residues; d marks the D form. Peptide text beside a SMILES is read from it. * marks the point of attachment. Decanoyl(3,6,9-trioxa) = COCCOCCOCC(=O)*; Decanoyl = CCCCCCCCCC(=O)*; Heptanoyl = CCCCCCC(=O)*; Orn = NCCC[C@H](N)C(=O)O; Dab = NCC[C@H](N)C(=O)O; Dap = NC[C@H](N)C(=O)O"}
{"smiles": "CCCCCC(=O)N[C@@H]1CNC(=O)[C@@H](CC(C)C)NC(=O)[C@@H](C)NC(=O)[C@@H](CC(C)C)NC(=O)[C@@H](Cc2ccccc2)NC1=O", "values": [{"measurement": "inhibition", "setting": "[1]", "value": "Active"}, {"measurement": "IC50", "setting": "[2]", "value": 1430, "unit": "nM"}]}
{"smiles": "CCCCCCC(=O)N[C@H]1CNC(=O)[C@H](CC(C)C)NC(=O)[C@H](C)NC(=O)[C@H](CC(C)C)NC(=O)[C@H](Cc2ccccc2)NC1=O", "values": [{"measurement": "inhibition", "setting": "[1]", "value": "Active"}, {"measurement": "IC50", "setting": "[2]", "value": 19100, "unit": "nM"}]}
{"smiles": "CCCCCCC(=O)N[C@H]1CCCCNC(=O)[C@H](CC(C)C)NC(=O)[C@H](C)NC(=O)[C@H](CC(C)C)NC(=O)[C@H](Cc2ccccc2)NC1=O", "note": "(Heptanoyl-KFLAL; lactam 1-C)", "values": [{"measurement": "inhibition", "setting": "[1]", "value": "inactive"}]}
{"smiles": "CCCCCCCC(=O)N[C@@H]1CNC(=O)[C@@H](CC(C)C)NC(=O)[C@@H](C)NC(=O)[C@@H](CC(C)C)NC(=O)[C@@H](Cc2ccccc2)NC1=O", "values": [{"measurement": "inhibition", "setting": "[1]", "value": "Active"}, {"measurement": "IC50", "setting": "[2]", "value": 457, "unit": "nM"}]}
{"smiles": "CCCCCCC(=O)N[C@@H]1CNC(=O)[C@@H](CC(C)C)NC(=O)[C@@H](C)NC(=O)[C@@H](CC(C)C)NC(=O)[C@@H](C)NC1=O", "values": [{"measurement": "inhibition", "setting": "[1]", "value": "Active"}]}
{"smiles": "CC(=O)N[C@H]1CNC(=O)[C@H](CC(C)C)NC(=O)[C@H](C)NC(=O)[C@H](CC(C)C)NC(=O)[C@H](Cc2ccccc2)NC1=O", "note": "(Ac-[Dap]FLAL; lactam 1-C)", "values": [{"measurement": "inhibition", "setting": "[1]", "value": "inactive"}]}
{"smiles": "CCCCCCCCCCCC(=O)N[C@@H]1CNC(=O)[C@@H](CC(C)C)NC(=O)[C@@H](C)NC(=O)[C@@H](CC(C)C)NC(=O)[C@@H](Cc2ccccc2)NC1=O", "values": [{"measurement": "inhibition", "setting": "[1]", "value": "Active"}]}
{"smiles": "COCCOCCOCC(=O)N[C@H]1CNC(=O)[C@H](CC(C)C)NC(=O)[C@H](C)NC(=O)[C@H](CC(C)C)NC(=O)[C@H](Cc2ccccc2)NC1=O", "note": "({Decanoyl(3,6,9-trioxa)}-[Dap]FLAL; lactam 1-C)", "values": [{"measurement": "inhibition", "setting": "[1]", "value": "inactive"}]}
{"smiles": "CCCCCCC(=O)N[C@@H]1CNC(=O)[C@@H](CC(C)C)NC(=O)[C@H](C)NC(=O)[C@H](CC(C)C)NC(=O)[C@@H](Cc2ccccc2)NC1=O", "values": [{"measurement": "inhibition", "setting": "[1]", "value": "inactive"}]}
{"smiles": "CCCCCCC(=O)N[C@@H]1CNC(=O)[C@@H](CC(C)C)NC(=O)[C@@H](C)NC(=O)[C@@H](Cc2ccccc2)NC(=O)[C@@H](Cc2ccccc2)NC1=O", "values": [{"measurement": "inhibition", "setting": "[1]", "value": "Active"}, {"measurement": "IC50", "setting": "[2]", "value": 739, "unit": "nM"}]}
{"smiles": "CC(=O)NCC(=O)NCC(=O)NCC(=O)N[C@H]1CNC(=O)[C@H](CC(C)C)NC(=O)[C@H](C)NC(=O)[C@H](CC(C)C)NC(=O)[C@H](Cc2ccccc2)NC1=O", "note": "(Ac-GGG[Dap]FLAL; lactam 4-C)", "values": [{"measurement": "inhibition", "setting": "[1]", "value": "inactive"}]}
{"smiles": "CCCCCCC(=O)N[C@H]1CNC(=O)[C@H](CC(C)C)NC(=O)[C@@H](C)NC(=O)[C@@H](CC(C)C)NC(=O)[C@H](Cc2ccccc2)NC1=O", "values": [{"measurement": "inhibition", "setting": "[1]", "value": "inactive"}]}
{"smiles": "CCCCCCC(=O)N[C@@H]1CNC(=O)[C@@H](CC(C)C)NC(=O)[C@@H](C)NC(=O)[C@@H](C)NC(=O)[C@@H](Cc2ccccc2)NC1=O", "values": [{"measurement": "inhibition", "setting": "[1]", "value": "Active"}]}
{"smiles": "CCCCCCC(=O)N[C@@H]1CNC(=O)[C@@H](CC(C)C)NC(=O)[C@@H](C)NC(=O)[C@@H](CCC(C)C)NC(=O)[C@@H](Cc2ccccc2)NC1=O", "values": [{"measurement": "inhibition", "setting": "[1]", "value": "Active"}, {"measurement": "IC50", "setting": "[2]", "value": 609, "unit": "nM"}]}
{"smiles": "CCCCCCC(=O)N[C@H]1CCNC(=O)[C@H](CC(C)C)NC(=O)[C@H](C)NC(=O)[C@H](CC(C)C)NC(=O)[C@H](Cc2ccccc2)NC1=O", "note": "(Heptanoyl-[Dab]FLAL; lactam 1-C)", "values": [{"measurement": "inhibition", "setting": "[1]", "value": "inactive"}]}
{"smiles": "CCCCCCCCCC(=O)N[C@H]1CNC(=O)[C@H](CC(C)C)NC(=O)[C@H](C)NC(=O)[C@H](CC(C)C)NC(=O)[C@H](Cc2ccccc2)NC1=O", "note": "(Decanoyl-[Dap]FLAL; lactam 1-C)", "values": [{"measurement": "inhibition", "setting": "[1]", "value": "Active"}]}
{"smiles": "CCCCCCC(=O)N[C@@H]1CNC(=O)[C@@H](CC(C)C)NC(=O)[C@@H](C)NC(=O)[C@@H](CC(C)C)NC(=O)[C@@H](Cc2cccc3ccccc23)NC1=O", "values": [{"measurement": "inhibition", "setting": "[1]", "value": "inactive"}]}
{"smiles": "CCCCCCC(=O)N[C@H]1CCCNC(=O)[C@H](CC(C)C)NC(=O)[C@H](C)NC(=O)[C@H](CC(C)C)NC(=O)[C@H](Cc2ccccc2)NC1=O", "note": "(Heptanoyl-[Orn]FLAL; lactam 1-C)", "values": [{"measurement": "inhibition", "setting": "[1]", "value": "inactive"}]}
{"smiles": "CCCCCCC(=O)N[C@@H]1CNC(=O)[C@@H](CCC(C)C)NC(=O)[C@@H](C)NC(=O)[C@@H](CC(C)C)NC(=O)[C@@H](Cc2ccccc2)NC1=O", "values": [{"measurement": "inhibition", "setting": "[1]", "value": "Active"}, {"measurement": "IC50", "setting": "[2]", "value": 913, "unit": "nM"}]}
{"smiles": "CCCCCCC(=O)N[C@H]1CNC(=O)[C@H](Cc2ccccc2)NC(=O)[C@H](C)NC(=O)[C@H](CC(C)C)NC(=O)[C@H](CC(C)C)NC1=O", "values": [{"measurement": "inhibition", "setting": "[1]", "value": "Active"}]}
{"smiles": "CCCCCCC(=O)N[C@@H]1CNC(=O)[C@@H](CC(C)C)NC(=O)[C@@H](C)NC(=O)[C@@H](CC(C)C)NC(=O)[C@@H](Cc2c[nH]c3ccccc23)NC1=O", "values": [{"measurement": "inhibition", "setting": "[1]", "value": "inactive"}]}
{"smiles": "CCCCCCC(=O)N[C@@H]1CNC(=O)[C@@H](CC(C)C)NC(=O)CNC(=O)[C@@H](CC(C)C)NC(=O)[C@@H](Cc2ccccc2)NC1=O", "values": [{"measurement": "inhibition", "setting": "[1]", "value": "inactive"}]}
{"smiles": "CCCCCCC(=O)N[C@@H]1CNC(=O)[C@@H](Cc2ccccc2)NC(=O)[C@@H](C)NC(=O)[C@@H](CC(C)C)NC(=O)[C@@H](CC(C)C)NC1=O", "values": [{"measurement": "inhibition", "setting": "[1]", "value": "inactive"}]}
{"smiles": "CCCCCCC(=O)N[C@@H]1CNC(=O)[C@@H](CC(C)C)NC(=O)[C@@H](C)NC(=O)[C@@H](CC(C)C)NC(=O)[C@@H](CCc2ccccc2)NC1=O", "values": [{"measurement": "inhibition", "setting": "[1]", "value": "inactive"}]}
{"smiles": "CCCCCCC(=O)N[C@@H]1CNC(=O)[C@@H](CC(C)C)NC(=O)[C@@H](C)NC(=O)[C@@H](CC(C)C)NC(=O)[C@@H](Cc2ccccc2)NC1=O", "values": [{"measurement": "inhibition", "setting": "[1]", "value": "Active"}, {"measurement": "IC50", "setting": "[2]", "value": 622, "unit": "nM"}]}
{"smiles": "CCCCCCC(=O)N[C@@H]1CNC(=O)[C@@H](CC(C)C)NC(=O)[C@@H](CC(C)C)NC(=O)[C@@H](CC(C)C)NC(=O)[C@@H](Cc2ccccc2)NC1=O", "values": [{"measurement": "inhibition", "setting": "[1]", "value": "inactive"}]}
{"smiles": "CCCCCCC(=O)N[C@@H]1CNC(=O)[C@@H](C)NC(=O)[C@@H](C)NC(=O)[C@@H](CC(C)C)NC(=O)[C@@H](Cc2ccccc2)NC1=O", "values": [{"measurement": "inhibition", "setting": "[1]", "value": "Active"}, {"measurement": "IC50", "setting": "[2]", "value": 69100, "unit": "nM"}]}
